{
  "source": "paper PMC5989765",
  "about": "“The safety, tolerability, and pharmacokinetic profile of GSK2838232, a novel 2nd generation HIV maturation inhibitor, as assessed in healthy subjects” (Pharmacology Research & Perspectives, 2018)",
  "origin": "cited, not measured here",
  "key": {"[1]": {"tested_on": "HIV", "conditions": "cited from earlier work"}, "[2]": {"tested_on": "HIV", "set-up": "method as in PMID 20154583", "conditions": "cited from earlier work"}},
  "data": [
    {"smiles": "C=C(C)[C@@H]1CC[C@]2(NCCN3CCS(=O)(=O)CC3)CC[C@]3(C)[C@H](CC[C@@H]4[C@@]5(C)CC=C(c6ccc(C(=O)O)cc6)C(C)(C)[C@@H]5CC[C@]43C)[C@@H]12", "note": "[BMS‐955176]", "values": [
      {"measurement": "anti‐HIV potency compared to BVM", "setting": "[1]; Phase IIa clinical studies", "value": "greater and dose‐related anti‐HIV potency"},
      {"measurement": "safety", "setting": "[1]; Phase IIa clinical studies", "value": "no obvious safety concerns"}
    ]},
    {"smiles": "C=C(C)[C@@H]1CC[C@]2(C(=O)O)CC[C@]3(C)[C@H](CC[C@@H]4[C@@]5(C)CC[C@H](OC(=O)CC(C)(C)C(=O)O)C(C)(C)[C@@H]5CC[C@]43C)[C@@H]12", "note": "[BVM, Bevirimat]", "values": [
      {"measurement": "efficacy against naturally occurring polymorphisms in the HIV gag region (CA & Sp1)", "setting": "[1]", "value": "lack of efficacy"},
      {"measurement": "potency in the presence of human serum", "setting": "[2]", "value": "significant decrease in potency"}
    ]}
  ]
}
